Some test systems named below: BT-549; CCRF-CEM; HCT-15; HL-60; IGROV-1; K562; LOX IMVI; MCF7; MDA-N; MOLT-4; Malme-3M; NCI-H23; NCI-H522; OVCAR-4; OVCAR-5; SF-268; SN12C; SNB-19; SW-620; TK-10.
What all share (experiment): NCI tumour cell line growth inhibition, 48 h

Molecules are shown by their SMILES.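 Step 1: Grow cells in 96-well plates. Step 2: Expose to compound for 48 hours at 5 concentrations. Step 3: Interpolate endpoints linearly; if unreached, use highest concentration. At the GI50, growth is halved.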 Activity calls are given as the source filed them. No stated cut-off is given here; in the data, active = GI50 up to about 1.1 µM and inactive = higher. Where only a bound is given, the exact number is not on record here.

With `Nc1ncnc2c1ncn2[C@@H]1O[C@H](C(=O)O)[C@@H](O)[C@H]1O` [5'-CARBOXY ADENOSINE], the GI50 was > 100 µM (inactive) with BT-549; > 100 µM (inactive) in the experiment on CCRF-CEM; greater than 100 µM in the experiment with HCT-15; > 100 µM (inactive) with HL-60; > 100 µM (inactive) in the experiment with IGROV-1; > 100 µM (inactive) in the experiment with K562. Moreover, the GI50 in the experiment on LOX IMVI, with MCF7, with MDA-N, with MOLT-4, in the experiment with Malme-3M and in the experiment with NCI-H23 was > 100 µM (inactive) in each case. The GI50 in the experiment with NCI-H522, in the experiment with OVCAR-4, with OVCAR-5, in the experiment with SF-268, with SN12C and in the experiment on SNB-19 was > 100 µM (inactive) in each case. Also, the GI50 with SW-620 and in the experiment on TK-10 was > 100 µM (inactive) in each case.

(Values after ChEMBL document CHEMBL1201862, “PubChem BioAssay data set” (2004).)
